One may read the GI50 as the concentration giving 50% growth inhibition. By TGI is commonly meant the concentration giving total growth inhibition. A high value points to lower sensitivity of the cells.

Where “and” joins values, the source holds several entries; their conditions need not be identical. Equal values may be shown once.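 Test compounds were applied to cells in 96-well plates for 48 hours at 5 doses. GI50 is the concentration that inhibits growth by half. The concentration for full growth arrest is given as TGI.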 Where a SMILES comes first, the peptide text is derived from it. [ ]: non-standard residue; d: D form. Orn = NCCC[CH](N)C(=O)O

This experiment relates to MDA-MB-468 breast. The experiment can be described thus: DTP human tumour cell line panel, 48 h.

Take `COc1ccc(/C=C/C(=O)c2ccc(NC(=O)CSc3nnc(-c4cc(OC)c(OC)c(OC)c4)o3)cc2)cc1`: the GI50 was 2100 nM and the TGI is 5020 nM. As for `N=C(N)c1ccc(-c2ccc(-c3ccco3)o2)cc1F`, the GI50 was 1570 nM and the TGI came to 3410 nM.

As for `Cc1ccc(S(=O)(=O)N2C/C(=C\c3cc(F)cc(F)c3)C(=O)/C(=C/c3cc(F)cc(F)c3)C2)cc1`, the GI50 was 385 nM and the TGI is 1760 nM. `O=C(Nc1cccc2ccccc12)c1cc2ccccc2cc1O`: the GI50 is 2450 nM and the TGI is 6330 nM. The corresponding values for `O=C(O)c1cn(C2CC2)c2cc(N3CCN(C(=O)Nc4nc(-c5ccc(Cl)cc5)cs4)CC3)c(F)cc2c1=O` are 1750 nM and 8150 nM. Consider `NNc1nc(-c2ccccn2)nc2sc3c(c12)CCCCCC3`, for which the GI50 was 3670 nM and the TGI was 31700 nM. As to `C#Cc1ccc(-n2c(/C=C/c3ccc4ccccc4n3)nc3ncccc3c2=O)cc1`, the GI50 was 232 nM and the TGI was determined as 894 nM. As for `Cc1ccc(C2CC(c3cccc(Nc4ccncc4)c3)=NN2c2ccc(Cl)cc2)cc1` (configuration not stated), the GI50 is 1670 nM and the TGI was found to be 3250 nM.

Consider `COc1ccc(/C=C2\CCCC3=C2N=C2SC=NN2C3c2ccc(OC)c(OC)c2)cc1OC` (configuration not stated), for which the GI50 was 2180 nM and the TGI turned out to be 25300 nM. With `Clc1cccc(Cc2cn3cc(-c4ccccc4)nc3s2)c1`, the GI50 was 4450 nM and the TGI was above 100000 nM. `CCOCC[P+](c1ccccc1)(c1ccccc1)c1ccccc1`: the GI50 was 2620 nM and the TGI was determined as 24900 nM.

Regarding `Cn1cc(C2=C(c3cccc(NCC(O)CO)c3)C(=O)NC2=O)c2cc(Cl)ccc21` (configuration not stated), the GI50 is 2110 nM and the TGI is 8430 nM. For `C#CCOc1c(OC)cc(C(=O)/C(C)=C/c2cccc(N=[N+]=[N-])c2)cc1OC` the same measures were 85.5 nM and above 100000 nM. In the case of `Cc1cc(Cl)ccc1Nc1nc(C(F)(F)F)ccc1C(=O)N/N=C/c1ccc(F)cc1`, the GI50 was 706 nM and the TGI was found to be 3260 nM.

Regarding `COC(C(=O)[C@@H](O)[C@@H](C)O)[C@@H]1Cc2cc3cc(O[C@H]4C[C@@H](O[C@H]5C[C@@H](O)[C@H](O)C(C)O5)[C@H](O)C(C)O4)c(C)c(O)c3c(O)c2C(=O)[C@H]1O[C@H]1C[C@@H](O[C@H]2C[C@@H](O[C@H]3C[C@@H](O)[C@@H](O)C(C)O3)[C@@H](O)C(C)O2)[C@H](O)C(C)O1` (some centres not stated), the 50% growth inhibitory concentration (GI50) was 396 nM and the TGI came out at 4090 nM.

`CN(C)CCOc1cccc(NC2=C(Cl)C(=O)C(Nc3cccc(OCCN(C)C)c3)=C(Cl)C2=O)c1`: the GI50 is 181 nM and the concentration for total growth inhibition (TGI) is 358 nM. On to `COc1ccc2oc(-c3ccc(Cl)cc3)c(N3CCN(C)CC3)c2c1`, for which the GI50 is 1660 nM and the TGI worked out at 4310 nM.

Turning to `O=C1C=CC(=O)N1CCCCCCCCCCN1C(=O)C=CC1=O`, the GI50 is 3220 nM and the TGI was determined as 14000 nM. `COC(=O)c1cccc(NC2=C(Cl)C(=O)c3nc(C)ccc3C2=O)c1`: the GI50 was 1610 nM and the TGI stood at 3280 nM. On to `Fc1ccc(-c2cc3nc(C(Cl)Cl)nc(-c4ccccc4)n3n2)cc1`, for which the GI50 was 269 nM and the total growth inhibition concentration (TGI) was 869 nM. On to `CC(=O)/C=C/c1ccc(N(C)Cc2ccc(C(C)(C)C)cc2)cc1`, for which the GI50 is 59700 nM and the concentration for total growth inhibition (TGI) amounted to 215000 nM. As to `CCN(CC)CCCC(C)Nc1ccnc2cc(Cl)c(SCc3ccccc3)cc12` (configuration not stated), the GI50 was 1230 nM and the total growth inhibition concentration (TGI) worked out at 2570 nM. On to `CCC1=C[C@H]2CN(CCc3c([nH]c4ccccc34)[C@@](C(=O)OC)(c3cc4c(cc3OC)N(C)[C@H]3[C@@](O)(C(=O)OC)[C@H](OC(C)=O)[C@]5(CC)[C@@H]6C[C@@H]6CN6CC[C@]43[C@@H]65)C2)C1`, for which the GI50 is 14.5 nM and the TGI amounted to 6590 nM. On to `CCNCCNc1cc(C2CCCC2)c(C#N)c2nc3ccccc3n12`, for which the GI50 was 1640 nM and the TGI is 3670 nM. Regarding `C#Cc1cc(OC)c(C(=O)Nc2ccc(F)cc2C(=O)Nc2cccc(S(=O)(=O)C(F)(F)F)c2)cn1`, the GI50 was 1510 nM and the TGI came out at 3990 nM.

`COc1ccc(-c2oncc2-c2cc(OC)c3c(c2)OCO3)cc1`: the GI50 was 1350 nM and the TGI was above 29700 nM.

With `N=C1N=Nc2nc(C3(c4nc5n(c4O)C(=N)N=N5)Cc4ccccc4C3=O)c(O)n21` (configuration not stated), the GI50 is 49800 nM and the TGI was above 100000 nM.

For `Cc1cccc2c(=O)c3c(sc12)c(NCCN)nc1ccccc13`, the GI50 was 700 nM and the TGI was 1580 nM. The corresponding values for `CCCNNC(=O)c1ccc(CNC(=O)/C=C/c2ccccc2)cc1` are 311 nM and above 31100 nM.

Regarding `O=C(Nc1ncc(Cc2ccc(Cl)cc2)s1)c1ccc2c(c1)OCCO2`, the GI50 was 258 nM. Take `COc1cc([C@@H]2c3cc4c(cc3[C@H](O)[C@H]3COC(=O)[C@@H]23)OCO4)cc(OC)c1OC`: the concentration for 50% growth inhibition (GI50) was 278 nM and 54.8 nM; the total growth inhibition concentration (TGI) is 2870 nM and 453 nM. For the molecule `CCN1CCN(Cc2ccc3cc(C(=O)Nc4cc(NC(=O)c5ccc6c(c5)OCCO6)ccc4F)ccc3n2)CC1`, the GI50 was 33.5 nM and the TGI came out at 181 nM.

Consider `CCOC(=O)C1=C(N)Oc2cc(OC)ccc2C1c1ccc(F)c(F)c1` (configuration not stated), for which the concentration for 50% growth inhibition (GI50) is 352 nM and the TGI was 4000 nM. For the molecule `Cc1cc(Cl)ccc1Nc1nc(C(F)(F)F)ccc1C(=O)N/N=C/c1c(Cl)cccc1Cl`, the GI50 was 274 nM and the TGI worked out at 842 nM.

As to `CCOC(=O)c1c2c(n3cccc(F)c13)C(=O)c1ncccc1C2=O`, the GI50 was 2870 nM and the TGI worked out at 9680 nM. For `COc1cccc(-c2cc(NCc3ccc4c(c3)OCO4)nc(N)n2)c1`, the GI50 is 220 nM and the TGI was found to be 15100 nM.

With `CCN1C(=O)N(CC)C2C1NN=C1SC(c3ccccc3)=CC(=O)N12` (configuration not stated), the 50% growth inhibitory concentration (GI50) was 231 nM and the TGI is 867 nM. Regarding `O=CNc1ccc2c(c1)Cc1cc([N+](=O)[O-])ccc1-2`, the GI50 was 1880 nM and the TGI was above 100000 nM. The corresponding values for `COc1ccc2c(c1)N(CCO)C1=C(C(=O)OC1)C2c1cccc(Br)c1` (configuration not stated) are 28.7 nM and 128 nM. For the molecule `CC(C)CC1NC(=O)C(CCCN)NC(=O)C(C(C)C)NC(=O)C2CCCN2C(=O)C(Cc2ccccc2)NC(=O)C(CC(C)C)NC(=O)C(CCCN)NC(=O)C(C(C)C)NC(=O)C2CCCN2C(=O)C(Cc2ccccc2)NC1=O` (configuration not stated) (cyclo(FPV[Orn]LFPV[Orn]L); configuration not given here), the GI50 was 3.94 nM; the total growth inhibition concentration (TGI) is 22.2 nM and 26.8 nM. As to `O=C(Nc1cccc(-n2cc(-c3ccncc3)c(-c3ccc(O)c(Cl)c3)n2)c1)Nc1ccc(Cl)c(C(F)(F)F)c1`, the GI50 was 2190 nM and the TGI stood at 6840 nM. For the molecule `Cc1ccc(S(=O)(=O)C2=C3C(=C(c4ccccc4)c4ccccc43)CN(S(=O)(=O)c3ccc(C)cc3)C2)cc1`, the GI50 was 5010 nM and the TGI turned out to be 40600 nM. As for `N=c1c2c(=O)n3c(nc2nc2sc4ccc(Cl)cc4n12)-c1ccccc1Sc1ccccc1-3`, the GI50 is 2670 nM and the TGI came out at 12400 nM. In the case of `COc1cc(C2c3cc4c(cc3OC(O)C2C)OCO4)cc(OC)c1O` (configuration not stated), the GI50 was 10600 nM and the concentration for total growth inhibition (TGI) is above 100000 nM.

For the origin of these results see PubChem BioAssay (NCI).
